Test results: publication PMC11571207, “Stereorandomized Oncocins with Preserved Ribosome Binding and Antibacterial Activity” (Journal of Medicinal Chemistry, 2024)
In brackets after ≈: the same amount, converted by molar mass. Non-standard residues stand in square brackets, D forms with d. Residues, ends and D or L forms follow the SMILES beside them. No end group written: not given here.

Assays:
[1] = tested on: S. aureus COL (MRSA); assay: microbe, parasite or virus in culture; conditions: for MIC S. aureus, 12.5% MHB / MIC S. aureus, Full MHB: S. aureus COL (MRSA), 16–20 h at 37 °C; for MIC S. aureus, 12.5% MHB: 12.5% Müller–Hinton medium; for MIC S. aureus, Full MHB: full Müller–Hinton medium; for MIC S. aureus COL (MRSA): supplement CSV
Excerpt: (§1) We tested antibacterial effects against the Gram-negative bacteria Escherichia coli, Klebsiella pneumoniae, Pseudomonas aeruginosa, and Acinetobacter baumannii and the Gram-positive methicillin-resistant Staphylococcus aureus (MRSA).
(§2) Bacterial growth assay (Figure S1), transmission electron microscopy (Figure S6), serum stability assay (Figure S7), circular dichroism spectral recording (Figures S8 and S9), antimicrobial and hemolysis activity assays (MIC and MHC), and vesicle leakage assay were carried out as described in earlier publications.[43],[44]
(§3) Minimum inhibitory concentration assay
(§4) Antimicrobial activity was assayed against P. aeruginosa PAO1, K. pneumoniae NCTC418, E. coli W3110, A. baumannii ATCC 19606, methicillin-resistant S. aureus COL (MRSA), and for selected peptides on P. aeruginosa PA14 and the polymyxin-B-resistant derivative PA14 2P4, as well as the clinical isolates ZEM-1A and ZEM9A, K. pneumoniae OXA-48, S. aureus Newman, Enterobacter cloacae and Burkholderia cenocepacia. The minimal inhibitory concentration (MIC) was determined by using broth microdilution method. A colo ny of bacteria was picked and grown in Luria-Bertani (LB) medium overnight at 37°C. For E. coli BW25113 sbmA::kan the medium was supplemented with 25 mg/L of kanamycin. The next day, the culture was then regrown in LB medium to log phase (OD600 = 0.6 to 0.8), which lasted approximately 4 h, and diluted to an OD600 of 0.022 in the desired medium. Stock solutions of 1 mg/mL of the samples were prepared in sterilized milliQ water and diluted to the beginning concentration of 64 μg/mL in 300 μL Mueller Hinton (MH)-medium. The diluted samples were added to first well of 96-well microtiter plate (TPP, untreated, Faust Laborbedarf, AG, Schaffhausen) and diluted serially by ½. Finally, 4 μL of the bacterial suspension was inoculated into the sample solutions (150 μL/well) with a final inoculation of about 5∙10^5 CFU/mL. The plates were then incubated at 37°C for 15-18h. For each assay, sterility (broth only) and growth control (broth with bacterial inoculum, without antibiotics) were checked with two columns in the plate. The next day, 15 μL of 3-(4,5-dimethylthiazol-2-yl)-2,5-diphenyltetrazolium bromide (MTT) was added to each well of the plate, such a way that MIC was defined as the lowest concentration of the peptide that inhibited visible growth of the tested

[2] = tested on: A. baumannii ATCC19606; assay: microbe, parasite or virus in culture; conditions: for MIC A. baumannii, 12.5% MHB / MIC A. baumannii, Full MHB: A. baumannii ATCC19606, 16–20 h at 37 °C; for MIC A. baumannii, 12.5% MHB: 12.5% Müller–Hinton medium; for MIC A. baumannii, Full MHB: full Müller–Hinton medium; for MIC A. baumannii ATCC19606: supplement CSV
Excerpt: as §1, §2, §3, §4

[3] = tested on: P. aeruginosa PAO1; assay: microbe, parasite or virus in culture; conditions: for MIC P. aeruginosa, 12.5% MHB / MIC P. aeruginosa, Full MHB: P. aeruginosa PAO1, 16–20 h at 37 °C; for MIC P. aeruginosa, 12.5% MHB: 12.5% Müller–Hinton medium; for MIC P. aeruginosa, Full MHB: full Müller–Hinton medium; for MIC P. aeruginosa PAO1: supplement CSV
Excerpt: as §1, §2, §3, §4

[4] = tested on: K. pneumoniae NCTC 418; assay: microbe, parasite or virus in culture; conditions: for MIC K. pneumoniae, 12.5% MHB / MIC K. pneumoniae, Full MHB: K. pneumoniae NCTC 418, 16–20 h at 37 °C; for MIC K. pneumoniae, 12.5% MHB: 12.5% Müller–Hinton medium; for MIC K. pneumoniae, Full MHB: full Müller–Hinton medium; for MIC K. pneumoniae NCTC418: supplement CSV
Excerpt: as §1, §2, §3, §4

[5] = tested on: E. coli W3110; assay: microbe, parasite or virus in culture; conditions: for MIC E. coli, 12.5% MHB / MIC E. coli, Full MHB: E. coli W3110, 16–20 h at 37 °C, broth microdilution; for MIC E. coli, 12.5% MHB: 12.5% Müller–Hinton medium; for MIC E. coli, Full MHB: full Müller–Hinton medium; for MIC E. coli W3110: supplement CSV
Excerpt: as §1, §2, §3, §4

[6] = tested on: human red blood cells; assay: Hemolysis assay, minimum hemolytic concentration; conditions: for Haemolysis on hRBC, MHC: 2.5% human red blood cells (final) in 10 mM phosphate, 150 mM NaCl, pH 7.4, 25 °C, 4 h, visual inspection; for MHC human red blood cells: supplement CSV

Row | Compound | MIC S. aureus, 12.5% MHB [1] | MIC S. aureus, Full MHB [1] | MIC S. aureus COL (MRSA) ([1]; 12.5% MH pH 7.4) [µg/mL] | MIC S. aureus COL (MRSA) ([1]; full MH pH 7.4) [µg/mL] | MIC A. baumannii, 12.5% MHB [2] [µg/mL] | MIC A. baumannii, Full MHB [2] [µg/mL] | MIC A. baumannii ATCC19606 ([2]; 12.5% MH pH 7.4) [µg/mL] | MIC A. baumannii ATCC19606 ([2]; full MH pH 7.4) [µg/mL] | MIC P. aeruginosa, 12.5% MHB [3] [µg/mL] | MIC P. aeruginosa, Full MHB [3] [µg/mL] | MIC P. aeruginosa PAO1 ([3]; 12.5% MH pH 7.4) [µg/mL] | MIC P. aeruginosa PAO1 ([3]; full MH pH 7.4) [µg/mL] | MIC K. pneumoniae, 12.5% MHB [4] [µg/mL] | MIC K. pneumoniae, Full MHB [4] [µg/mL] | MIC K. pneumoniae NCTC418 ([4]; 12.5% MH pH 7.4) [µg/mL] | MIC K. pneumoniae NCTC418 ([4]; full MH pH 7.4) [µg/mL] | MIC E. coli, 12.5% MHB [5] [µg/mL] | MIC E. coli, Full MHB [5] [µg/mL] | MIC E. coli W3110 ([5]; 12.5% MH pH 7.4) [µg/mL] | MIC E. coli W3110 ([5]; full MH pH 7.4) [µg/mL] | also measured
1 | CC[C@H](C)[C@H](NC(=O)[C@H](CCCNC(=N)N)NC(=O)[C@H](CCCNC(=N)N)NC(=O)[C@@H]1CCCN1C(=O)[C@@H]1CCCN1C(=O)[C@H](CCCNC(=N)N)NC(=O)[C@@H]1CCCN1C(=O)[C@H](CCCNC(=N)N)NC(=O)[C@@H]1CCCN1C(=O)[C@H](CC(C)C)NC(=O)[C@H](Cc1ccc(O)cc1)NC(=O)[C@H]1CCCN1C(=O)[C@H]1CCCN1C(=O)[C@H](CCCCN)NC(=O)[C@H](CC(=O)O)NC(=O)[C@@H](N)C(C)C)C(=O)N[C@@H](Cc1ccc(O)cc1)C(=O)N[C@@H](CC(N)=O)C(=O)N[C@@H](CCCNC(=N)N)C(N)=O [DP45-Onc] (H-VDK[dP][dP]YLPRPRPPRRIYNR-NH2) | >64 / >64 μg/mL | >64 / >64 μg/mL | >64 | >64 | 16 (≈ 6.69 µM) | > 64 | 16 (≈ 6.69 µM) | >64 | > 16 | > 64 | >16 | >64 | > 16 | > 64 | >16 | >64 | 8 (≈ 3.35 µM) | 64 (≈ 26.8 µM) | 8 (≈ 3.35 µM) | 64 (≈ 26.8 µM) | Haemolysis on hRBC, MHC [6]: >1000 µg/mL; MHC human red blood cells [6]: >1000 µg/mL
2 | VDKPPYLPRPRPPRRIYNR [sr6Cterm-Onc] (VDKPPYLPRPRPPRRIYNR-NH2; also: residues 14-19 stereorandomized (1:1 L/D mixture)) | > 16 µg/mL | > 64 µg/mL | >16 | >64 | 4 | 32 | 4 | 32 | 4 | 64 | 4 | 64 | 1 | 4 | 1 | 4 | 1 | 8 | 1 | 8 | Haemolysis on hRBC, MHC [6]: >1000 µg/mL; MHC human red blood cells [6]: >1000 µg/mL
3 | CC[C@H](C)[C@H](NC(=O)[C@H](CCCNC(=N)N)NC(=O)[C@H](CCCNC(=N)N)NC(=O)[C@@H]1CCCN1C(=O)[C@@H]1CCCN1C(=O)[C@H](CCCNC(=N)N)NC(=O)[C@@H]1CCCN1C(=O)[C@H](CCCNC(=N)N)NC(=O)[C@@H]1CCCN1C(=O)[C@H](CC(C)C)NC(=O)[C@H](Cc1ccc(O)cc1)NC(=O)[C@@H]1CCCN1C(=O)[C@H]1CCCN1C(=O)[C@H](CCCCN)NC(=O)[C@H](CC(=O)O)NC(=O)[C@@H](N)C(C)C)C(=O)N[C@@H](Cc1ccc(O)cc1)C(=O)N[C@@H](CC(N)=O)C(=O)N[C@@H](CCCNC(=N)N)C(N)=O [DP4-Onc] (H-VDK[dP]PYLPRPRPPRRIYNR-NH2) | >64 / 64 μg/mL | >64 / 64 μg/mL | 64 (≈ 26.8 µM) | >64 | 8 (≈ 3.35 µM) | 64 (≈ 26.8 µM) | 8 (≈ 3.35 µM) | 64 (≈ 26.8 µM) | > 16 | > 64 | >16 | >64 | 4 (≈ 1.67 µM) | 32 (≈ 13.4 µM) | 4 (≈ 1.67 µM) | 32 (≈ 13.4 µM) | 4 (≈ 1.67 µM) | 16 (≈ 6.69 µM) | 4 (≈ 1.67 µM) | 16 (≈ 6.69 µM) | Haemolysis on hRBC, MHC [6]: >1000 µg/mL; MHC human red blood cells [6]: >1000 µg/mL
4 | VDKPPYLPRPRPPRRIYNR [sr10Cterm-Onc] (VDKPPYLPRPRPPRRIYNR-NH2; also: residues 10-19 stereorandomized (1:1 L/D mixture)) | 32 µg/mL | > 64 µg/mL | 32 | >64 | 4 | 64 | 4 | 64 | 8 | 64 | 8 | 64 | 4 | 8 | 4 | 8 | 4 | 16 | 4 | 16 | Haemolysis on hRBC, MHC [6]: >1000 µg/mL; MHC human red blood cells [6]: >1000 µg/mL
5 | CC[C@H](C)[C@H](NC(=O)[C@H](CCCNC(=N)N)NC(=O)[C@H](CCCNC(=N)N)NC(=O)[C@@H]1CCCN1C(=O)[C@@H]1CCCN1C(=O)[C@H](CCCNC(=N)N)NC(=O)[C@H]1CCCN1C(=O)[C@H](CCCNC(=N)N)NC(=O)[C@@H]1CCCN1C(=O)[C@H](CC(C)C)NC(=O)[C@H](Cc1ccc(O)cc1)NC(=O)[C@@H]1CCCN1C(=O)[C@@H]1CCCN1C(=O)[C@H](CCCCN)NC(=O)[C@H](CC(=O)O)NC(=O)[C@@H](N)C(C)C)C(=O)N[C@@H](Cc1ccc(O)cc1)C(=O)N[C@@H](CC(N)=O)C(=O)N[C@@H](CCCNC(=N)N)C(N)=O [DP10-Onc] (H-VDKPPYLPR[dP]RPPRRIYNR-NH2) | >64 / >64 μg/mL | >64 / >64 μg/mL | >64 | >64 | 8 (≈ 3.35 µM) | 64 (≈ 26.8 µM) | 8 (≈ 3.35 µM) | 64 (≈ 26.8 µM) | 16 (≈ 6.69 µM) | > 64 | 16 (≈ 6.69 µM) | >64 | 4 (≈ 1.67 µM) | 32 (≈ 13.4 µM) | 4 (≈ 1.67 µM) | 32 (≈ 13.4 µM) | 4 (≈ 1.67 µM) | 16 (≈ 6.69 µM) | 4 (≈ 1.67 µM) | 16 (≈ 6.69 µM) | Haemolysis on hRBC, MHC [6]: >1000 µg/mL; MHC human red blood cells [6]: >1000 µg/mL
